# Laboratory results reported in patent US20060247223A1, “Non-imidazole alkylamines as histamine H3- receptor ligands and their therapeutic applications” (priority 1998, published 2006).
# Where a name gives a salt, the structure may show the parent alone.
row,melting point [°C],Structure (SMILES)
1,185 to 187,CCC(=NOC)c1ccc(OCCCN2CCCCC2C)cc1.Cl (centres unmarked)
2,135 to 136,C[C@@H]1CCC[C@H](C)N1CCCCCOc1ccccc1.Cl
3,171 to 173,CC1CCCN(CCCOc2ccc(C#N)cc2)C1.Cl (centres unmarked)
4,148 to 150,CC(=O)CCc1ccc(OCCCN2CCCCC2)cc1.Cl
5,177 to 180,CC1CCCCN1CCCOc1ccc(C#N)cc1.Cl (centres unmarked)
6,200 to 202,"CC1CCN(CCCOc2ccc(C#N)cc2)CC1 (as salt: hydrochloride) [Example 78, 1-[3-(4-cyanophenoxy)propyl]-4-methylpiperidine]"
7,157 to 159,"N#Cc1ccc(OCCCN2CCCCC2)cc1F (as salt: hydrochloride) [Example 82, 1-[3-(4-cyano-3-fluorophenoxy)propyl]piperidine]"
8,151 to 153,CC1CCCCN1CCCOc1ccc(C#N)cc1 (centres unmarked) (as salt: hydrochloride) [Example 98]
9,143 to 145,"c1ccc(OCCCCCN2CCCCC2)cc1 (as salt: oxalate) [Example 1, 1-(5-phenoxypentyl)-piperidine]"
10,153 to 155,"c1ccc(OCCCCCN2CCCC2)cc1 (as salt: oxalate) [Example 2, 1-(5-phenoxypentyl)-pyrrolidine]"
11,122 to 124,"CCN(C)CCCCCOc1ccccc1 (as salt: oxalate) [Example 3, N-methyl-N-(5-phenoxypentyl)-ethylamine]"
12,132 to 134,"c1ccc(OCCCCCN2CCCCCC2)cc1 (as salt: oxalate) [Example 5, N-(5-phenoxypentyl)-hexamethyleneimine]"
13,90 to 91,"CCCN(CC)CCCCCOc1ccccc1 (as salt: oxalate) [Example 6, N-ethyl-N-(5-phenoxypentyl)-propylamine]"
14,80 to 83,"CC1CCCCN1CCCCCOc1ccccc1 (centres unmarked) (as salt: oxalate) [Example 7, 1-(5-phenoxypentyl)-2-methyl-piperidine]"
15,165 to 166,"CCCC1CCN(CCCCCOc2ccccc2)CC1 (as salt: oxalate) [Example 8, 1-(5-phenoxypentyl)-4-propyl-piperidine]"
16,151 to 152,"CC1CCN(CCCCCOc2ccccc2)CC1 (as salt: oxalate) [Example 9, 1-(5-phenoxypentyl)-4-methyl-piperidine]"
17,186 to 188,"CC(=O)N1CCN(CCCCCOc2ccccc2)CC1 (as salt: oxalate) [Example 11, 1-acetyl-4-(5-phenoxypentyl)-piperazine]"
18,154 to 155,"C[C@@H]1C[C@H](C)CN(CCCCCOc2ccccc2)C1 (as salt: oxalate) [Example 13, 1-(5-phenoxypentyl)-3,5-cis-dimethyl-piperidine]"
19,149 to 150,"CCOC(=O)C1CCN(CCCCCOc2ccccc2)CC1 (as salt: oxalate) [Example 15, 4-carboethoxy-1-(5-phenoxypentyl)-piperidine]"
20,117 to 118,"CCOC(=O)C1CCCN(CCCCCOc2ccccc2)C1 (centres unmarked) (as salt: oxalate) [Example 16, 3-carboethoxy-1-(5-phenoxypentyl)-piperidine]"
21,177 to 179,"C1=CCN(CCCCCOc2ccccc2)CC1 (as salt: oxalate) [Example 17, 1-(5-phenoxypentyl)-1,2,3,6-tetrahydropyridine]"
22,139 to 141,"Clc1ccc(OCCCCCN2CCCC2)cc1 (as salt: oxalate) [Example 19, 1-[5-(4-chlorophenoxy)-pentyl]-pyrrolidine]"
23,115 to 116,"COc1ccc(OCCCCCN2CCCC2)cc1 (as salt: oxalate) [Example 20, 1-[5-(4-methoxyphenoxy)-pentyl]-pyrrolidine]"
24,138 to 140,"Cc1ccc(OCCCCCN2CCCC2)cc1 (as salt: oxalate) [Example 21, 1-[5-(4-methylphenoxy)-pentyl]-pyrrolidine]"
25,129 to 130,"N#Cc1ccc(OCCCCCN2CCCC2)cc1 (as salt: oxalate) [Example 22, 1-[5-(4-cyanophenoxy)-pentyl]-pyrrolidine]"
26,160 to 163,"c1ccc2c(OCCCCCN3CCCC3)cccc2c1 (as salt: oxalate) [Example 24, 1-[5-(1-naphthyloxy)-pentyl]-pyrrolidine]"
27,131 to 132,"Clc1cccc(OCCCCCN2CCCC2)c1 (as salt: oxalate) [Example 25, 1-[5-(3-chlorophenoxy)-pentyl]-pyrrolidine]"

row,melting point [°C],Structure (SMILES)
1,189 to 190,"c1ccc(-c2ccc(OCCCCCN3CCCC3)cc2)cc1 (as salt: oxalate) [Example 26, 1-[5-(4-phenylphenoxy)-pentyl]-pyrrolidine]"
2,131 to 132,"c1cc2c(cc1OCCCCCN1CCCC1)CCCC2 (as salt: oxalate) [Example 27, 1-{5-[2-(5,6,7,8-tetrahydronaphthyl)-oxy]-pentyl}-pyrrolidine]"
3,148 to 149,"c1cc2c(c(OCCCCCN3CCCC3)c1)CCCC2 (as salt: oxalate) [Example 30, 1-{5-[1-(5,6,7,8-tetrahydronaphthyl)-oxy]-pentyl}-pyrrolidine]"
4,143 to 144,"c1ccc(OCCCCN2CCCC2)cc1 (as salt: oxalate) [Example 31, 1-(4-phenoxybutyl)-pyrrolidine]"
5,146 to 147,"c1ccc(OCCCCCCN2CCCC2)cc1 (as salt: oxalate) [Example 32, 1-(6-phenoxyhexyl)-pyrrolidine]"
6,150 to 152,"c1ccc(SCCCCCN2CCCC2)cc1 (as salt: oxalate) [Example 33, 1-(5-phenylthiopentyl)-pyrrolidine]"
7,114 to 116,"c1ccc(SCCCCN2CCCC2)cc1 (as salt: oxalate) [Example 34, 1-(4-phenylthiobutyl)-pyrrolidine]"
8,130 to 131,"O=[N+]([O-])c1cccc(OCCCCCN2CCCC2)c1 (as salt: oxalate) [Example 36, 1-[5-(3-nitrophenoxy)-pentyl]-pyrrolidine]"
9,149 to 150,"Fc1ccc(OCCCCCN2CCCC2)cc1 (as salt: oxalate) [Example 37, 1-[5-(4-fluorophenoxy)-pentyl]-pyrrolidine]"
10,148 to 149,"CC1CCCN(CCCCCOc2ccc([N+](=O)[O-])cc2)C1 (centres unmarked) (as salt: oxalate) [Example 38, 1-[5-(4-nitrophenoxy)-pentyl]-3-methyl-piperidine]"
11,130 to 134,"CC(=O)c1ccc(OCCCCCN2CCCC2)cc1 (as salt: oxalate) [Example 39, 1-[5-(4-acetylphenoxy)-pentyl]-pyrrolidine]"
12,120 to 122,"Nc1ccc(OCCCCCN2CCCC2)cc1 (as salt: oxalate) [Example 40, 1-[5-(4-aminophenoxy)-pentyl]-pyrrolidine]"
13,119 to 120,"N#Cc1cccc(OCCCCCN2CCCC2)c1 (as salt: oxalate) [Example 41, 1-[5-(3-cyanophenoxy)-pentyl]-pyrrolidine]"
14,160 to 161,"CCN(CC)CCCOc1ccc([N+](=O)[O-])cc1 (as salt: oxalate) [Example 42, N-[3-(4-nitrophenoxy)-propyl]-diethylamine]"
15,148 to 150,"CCN(CC)CCCOc1ccc(C#N)cc1 (as salt: oxalate) [Example 43, N-[3-(4-cyanophenoxy)-propyl]-diethylamine]"
16,141 to 142,"O=C(c1ccccc1)c1ccc(OCCCCCN2CCCC2)cc1 (as salt: oxalate) [Example 44, 1-[5-(4-benzoylphenoxy)-pentyl]-pyrrolidine]"
17,177 to 178,"O=C(Cc1ccccc1)c1ccc(OCCCCCN2CCCC2)cc1 (as salt: oxalate) [Example 45, 1-{5-[4-(phenylacetyl)-phenoxy]-pentyl}pyrrolidine]"
18,108 to 110,"CCN(CC)CCCOc1ccc(C(C)=O)cc1 (as salt: oxalate) [Example 46, N-[3-(4-acetylphenoxy)-propyl]-diethylamine]"
19,135 to 136,"c1ccc(Oc2ccc(OCCCCCN3CCCC3)cc2)cc1 (as salt: oxalate) [Example 48, 1-[5-(4-phenoxyphenoxy)-pentyl]-pyrrolidine]"
20,176 to 178,"O=C(Nc1ccc(OCCCCCN2CCCC2)cc1)c1ccccc1 (as salt: oxalate) [Example 49, 1-[5-(4-N-benzamidophenoxy)-pentyl]-pyrrolidine]"
21,102 to 104,"CC(O)c1ccc(OCCCCCN2CCCC2)cc1 (centres unmarked) (as salt: oxalate) [Example 50, 1-{5-[4-(1-hydroxyethyl)-phenoxy]-pentyl}-pyrrolidine]"
22,120 to 122,"CCN(CC)CCCCCOc1ccc(C#N)cc1 (as salt: oxalate) [Example 51, 1-[5-(4-cyanophenoxy)-pentyl]-diethylamine]"
23,115 to 116,"N#Cc1ccc(OCCCCCN2CCCCC2)cc1 (as salt: oxalate) [Example 52, 1-[5-(4-cyanophenoxy)-pentyl]-piperidine]"
24,148 to 149,"CN(C)CCCCCOc1ccc(C#N)cc1 (as salt: oxalate) [Example 53, N-[5-(4-cyanophenoxy)-pentyl]-dimethylamine]"
25,166 to 167,"CN(C)CCCOc1ccc(C#N)cc1 (as salt: oxalate) [Example 55, N-[3-(4-cyanophenoxy)-propyl]-dimethylamine]"
26,143 to 145,"CCN(CC)CCCCOc1ccc(C#N)cc1 (as salt: oxalate) [Example 56, N-[4-(4-cyanophenoxy)-butyl]-diethylamine]"
27,163 to 165,"N#Cc1ccc(OCCCN2CCCC2)cc1 (as salt: oxalate) [Example 58, 1-[3-(4-cyanophenoxy)-propyl]-pyrrolidine]"

row,Structure (SMILES),melting point [°C]
1,"N#Cc1ccc(OCCCN2CCCCC2)cc1 (as salt: oxalate) [Example 59, 1-[3-(4-cyanophenoxy)propyl]piperidine]",151 to 153
2,"N#Cc1ccc(OCCCN2CCCCCC2)cc1 (as salt: oxalate) [Example 60, N-[3-(4-cyanophenoxy)-propyl]-hexamethyleneimine]",124 to 125
